The values that follow come from patent US20150274664A1 (MERCK SHARP & DOHME CORP., priority 2012, published 2015).

SMILES strings stand for the structures.

Usually EC50 stands for the concentration at which the effect is half-maximal. Low values mean an effect from little substance, high ones a need for much substance.

The target of this assay is T1, human GPR119 (Homo sapiens, UniProt Q8TDV5).
T1 construct: expressed in transfected cells; host or cells: HEK293
T1 sequence (Q8TDV5 1-335): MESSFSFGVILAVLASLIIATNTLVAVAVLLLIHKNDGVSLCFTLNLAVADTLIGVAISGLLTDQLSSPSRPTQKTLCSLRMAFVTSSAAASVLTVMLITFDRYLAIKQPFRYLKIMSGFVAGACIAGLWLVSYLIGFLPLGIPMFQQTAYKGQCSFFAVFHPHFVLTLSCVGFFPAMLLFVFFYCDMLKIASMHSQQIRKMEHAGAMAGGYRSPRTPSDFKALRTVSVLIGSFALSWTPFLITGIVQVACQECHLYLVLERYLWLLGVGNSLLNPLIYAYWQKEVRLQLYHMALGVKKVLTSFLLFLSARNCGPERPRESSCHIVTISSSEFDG
Briefly: Measurement of GPR119 signaling using LANCE 384-well cAMP kit (LCMP assay). The assay is classed as cell-based. The following applies: HEK293 cells stably transfected with human GPR119. In a few lines: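 HEK293 cells stably expressing human GPR119, in stimulation buffer at pH 7.4 with 100 μM phosphodiesterase inhibitors, exposed to a 10-point compound dilution (2.5% DMSO final) for 45 min. cAMP measured by LANCE TR-FRET at 665 nm against a cAMP standard curve, normalized between DMSO basal and an internal agonist maximum, with a 4-parameter fit.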
(In general: Time-resolved FRET reads energy transfer from a long-lived donor to a nearby acceptor.)
In turn, `CC1(OC(=O)N2CCC([C@@H]3C[C@H]3CCOc3ccc(CC(=O)N4CCC4)cn3)CC2)CC1` [Example 120, 1-methylcyclopropyl 4-((1S,2S)-2-(2-(5-(2-(azetidin-1-yl)-2-oxoethyl)pyridin-2-yloxy)ethyl)cyclopropyl)piperidine-1-carboxylate] yielded a half-maximal effective concentration (EC50) of 21 nM.

`CCc1cnc(N2CCC([C@@H]3C[C@H]3CCOc3cc(F)c(CC(=O)N4CCC4)c(F)c3)CC2)nc1` [Example 50, 1-(azetidin-1-yl)-2-(4-(2-((1S,2S)-2-(1-(5-ethylpyrimidin-2-yl)piperidin-4-yl)cyclopropyl)ethoxy)-2,6-difluorophenyl)ethanone] had a half-maximal effective concentration (EC50) of 0.35 nM.

In the case of `CCc1cnc(N2CCC([C@H]3C[C@@H]3COCc3ccc(S(=O)(=O)CC)cc3)CC2)nc1` [Example 9, 5-ethyl-2-(4-((1R,2S)-2-(((4-(ethylsulfonyl)benzyl)oxy)methyl)cyclopropyl)piperidin-1-yl)pyrimidine], the 50% effective concentration (EC50) was 22 nM.

On to `CC1(OC(=O)N2CCC([C@H]3C[C@@H]3CCOc3cc(F)c(CC(=O)N4CCC4)c(F)c3)CC2)CC1` [Example 103, 1-methylcyclopropyl 4-((1R,2R)-2-(2-(4-(2-(azetidin-1-yl)-2-oxoethyl)-3,5-difluorophenoxy)ethyl)cyclopropyl)piperidine-1-carboxylate], for which the EC50 came out at 0.7 nM.

Consider `CC(C)c1noc(N2CCC([C@@H]3C[C@H]3CCOc3ccc(CC(=O)N4CCC4)cn3)CC2)n1` [Example 121, 1-(azetidin-1-yl)-2-(6-(2-((1S,2S)-2-(1-(3-isopropyl-1,2,4-oxadiazol-5-yl)piperidin-4-yl)cyclopropyl)ethoxy)pyridin-3-yl)ethanone], for which it took 24 nM to reach a half-maximal effect (EC50).

In turn, `CCc1cnc(N2CCC([C@H]3C[C@@H]3CCOc3ccc(CC(=O)N(C)C)c(F)c3)CC2)nc1` [Example 47, 2-(4-(2-((1R,2R)-2-(1-(5-ethylpyrimidin-2-yl)piperidin-4-yl)cyclopropyl)ethoxy)-2-fluorophenyl)-N,N-dimethylacetamide] registered a concentration giving a half-maximal response (EC50) of 2.9 nM. This EC50 lies about 8.3-fold lower than the previous one.

In turn, `CC(C)c1noc(N2CCC([C@H]3C[C@@H]3CCOc3ccc(CC(=O)N4CCC4)c(F)c3)CC2)n1` [Example 72, 1-(azetidin-1-yl)-2-(2-fluoro-4-(2-((1R,2R)-2-(1-(3-isopropyl-1,2,4-oxadiazol-5-yl)piperidin-4-yl)cyclopropyl)ethoxy)phenyl)ethanone] registered an EC50 of 2.6 nM.

Take `COCc1cnc(N2CCC([C@H]3C[C@@H]3CCOc3cc(F)c(CC(=O)N4CCC4)c(F)c3)CC2)nc1` [Example 56, 1-(azetidin-1-yl)-2-(2,6-difluoro-4-(2-((1R,2R)-2-(1-(5-(methoxymethyl)pyrimidin-2-yl)piperidin-4-yl)cyclopropyl)ethoxy)phenyl)ethanone]: the EC50 stood at 0.4 nM.

The compound `CCc1cnc(N2CCC([C@H]3C[C@@H]3CCOc3cc(F)c(CC(=O)N(C)C)c(F)c3)CC2)nc1` [Example 55, 2-(4-(2-((1R,2R)-2-(1-(5-ethylpyrimidin-2-yl)piperidin-4-yl)cyclopropyl)ethoxy)-2,6-difluorophenyl)-N,N-dimethylacetamide] gave an EC50 of 0.34 nM.

`CS(=O)(=O)c1ccc(OCC[C@H]2C[C@@H]2C2CCN(c3ncc(Cl)cn3)CC2)cc1F` [Example 25, 5-chloro-2-(4-((1R,2R)-2-(2-(3-fluoro-4-(methylsulfonyl)phenoxy)ethyl)cyclopropyl)piperidin-1-yl)pyrimidine] registered an EC50 of 4.1 nM.

`CCc1cnc(N2CCC([C@@H]3C[C@H]3CCOc3ccc(CC(=O)N4CCC4)cn3)CC2)nc1` [Example 116, 1-(azetidin-1-yl)-2-(6-(2-((1S,2S)-2-(1-(5-ethylpyrimidin-2-yl)piperidin-4-yl)cyclopropyl)ethoxy)pyridin-3-yl)ethanone] gave a concentration giving a half-maximal response (EC50) of 9.7 nM. Compared with the last compound, the EC50 is about 2.4-fold higher.

In the case of `CC(C)c1noc(N2CCC([C@@H]3C[C@H]3CCOc3ccc(CC(=O)N(C)C)c(F)c3)CC2)n1` [Example 76, 2-(2-fluoro-4-(2-((1S,2S)-2-(1-(3-isopropyl-1,2,4-oxadiazol-5-yl)piperidin-4-yl)cyclopropyl)ethoxy)phenyl)-N,N-dimethylacetamide], a half-maximal response (EC50) required 6.3 nM.

For `COCc1cnc(N2CCC([C@@H]3C[C@H]3CCOc3ccc(CC(=O)N4CCC4)c(F)c3)CC2)nc1` [Example 48, 1-(azetidin-1-yl)-2-(2-fluoro-4-(2-((1S,2S)-2-(1-(5-(methoxymethyl)pyrimidin-2-yl)piperidin-4-yl)cyclopropyl)ethoxy)phenyl)ethanone], the EC50 was determined as 8.5 nM.

In the case of `CCc1cnc(N2CCC([C@H]3C[C@@H]3CCOc3cc(F)cc(F)c3CC(=O)N3CCC3)CC2)nc1` [Example 119, 1-(azetidin-1-yl)-2-(2-(2-((1R,2R)-2-(1-(5-ethylpyrimidin-2-yl)piperidin-4-yl)cyclopropyl)ethoxy)-4,6-difluorophenyl)ethanone], the midpoint of the response, the EC50, lay at 17 nM. This EC50 lies about 2-fold higher than the previous one.

Turning to `CCc1cnc(N2CCC([C@H]3C[C@@H]3CCOc3ccc(CC(=O)N4CCC4)c(F)c3)CC2)nc1` [Example 45, 1-(azetidin-1-yl)-2-(4-(2-((1R,2R)-2-(1-(5-ethylpyrimidin-2-yl)piperidin-4-yl)cyclopropyl)ethoxy)-2-fluorophenyl)ethanone], the EC50 is 0.8 nM. This EC50 is about 21-fold lower than that of the compound before.

Regarding `CC(C)c1noc(N2CCC([C@H]3C[C@@H]3CCOc3cc(F)c(CC(=O)N(C)C)c(F)c3)CC2)n1` [Example 81, 2-(2,6-difluoro-4-(2-((1R,2R)-2-(1-(3-isopropyl-1,2,4-oxadiazol-5-yl)piperidin-4-yl)cyclopropyl)ethoxy)phenyl)-N,N-dimethylacetamide], the midpoint of the response, the EC50, lay at 0.67 nM.

In turn, `Fc1cc(-n2cnnn2)ccc1OCC[C@@H]1C[C@H]1C1CCN(c2ncc(Cl)cn2)CC1` [Example 41, 5-chloro-2-(4-((1S,2S)-2-(2-(2-fluoro-4-(1H-tetrazol-1-yl)phenoxy)ethyl)cyclopropyl)piperidin-1-yl)pyrimidine] showed an EC50 of 5.6 nM.

In turn, `CS(=O)(=O)c1ccc(OCC[C@H]2C[C@@H]2C2CCN(c3ncc(Cl)cn3)CC2)c(F)c1` [Example 30, 5-chloro-2-(4-((1R,2R)-2-(2-(2-fluoro-4-(methylsulfonyl)phenoxy)ethyl)cyclopropyl)piperidin-1-yl)pyrimidine] returned an EC50 of 23 nM. Compared with the last compound, the EC50 is about 4.1-fold higher.

Compound `CC(C)c1noc(N2CCC([C@H]3C[C@@H]3CCOc3ccc(S(C)(=O)=O)cc3F)CC2)n1` [Example 85, 5-(4-((1R,2R)-2-(2-(2-fluoro-4-(methylsulfonyl)phenoxy)ethyl)cyclopropyl)piperidin-1-yl)-3-isopropyl-1,2,4-oxadiazole] came in with an EC50 of 17 nM.

In turn, `O=C(Cc1ccc(OCC[C@H]2C[C@@H]2C2CCN(c3ncc(Cl)cn3)CC2)c(F)c1)N1CCC1` [Example 35, 1-(azetidin-1-yl)-2-(4-(2-((1R,2R)-2-(1-(5-chloropyrimidin-2-yl)piperidin-4-yl)cyclopropyl)ethoxy)-3-fluorophenyl)ethanone] showed an EC50 of 4.6 nM.

On to `CCc1cnc(N2CCC([C@H]3C[C@@H]3CCOc3ccc(-n4cnnn4)c(F)c3)CC2)nc1` [Example 38, 5-ethyl-2-(4-((1R,2R)-2-(2-(3-fluoro-4-(1H-tetrazol-1-yl)phenoxy)ethyl)cyclopropyl)piperidin-1-yl)pyrimidine], for which the 50% effective concentration (EC50) was found to be 5.3 nM.

For the compound `CC(C)c1noc(N2CCC([C@H]3C[C@@H]3CCOc3ccc(CC(=O)N(C)C)c(F)c3)CC2)n1` [Example 75, 2-(2-fluoro-4-(2-((1R,2R)-2-(1-(3-isopropyl-1,2,4-oxadiazol-5-yl)piperidin-4-yl)cyclopropyl)ethoxy)phenyl)-N,N-dimethylacetamide], the EC50 turned out to be 8.1 nM.

The compound `CC(C)c1noc(N2CCC([C@H]3C[C@@H]3CCOc3cc(F)cc(F)c3CC(=O)N(C)C)CC2)n1` [Example 122, 2-(2,4-difluoro-6-(2-((1R,2R)-2-(1-(3-isopropyl-1,2,4-oxadiazol-5-yl)piperidin-4-yl)cyclopropyl)ethoxy)phenyl)-N,N-dimethylacetamide] came in with an EC50 of 20 nM.

Turning to `CN(C)C(=O)Cc1c(F)cc(OCC[C@@H]2C[C@H]2C2CCN(C(=O)OC3(C)CC3)CC2)cc1F` [Example 102, 1-methylcyclopropyl 4-((1S,2S)-2-(2-(4-(2-(dimethylamino)-2-oxoethyl)-3,5-difluorophenoxy)ethyl)cyclopropyl)piperidine-1-carboxylate], the EC50 is 2.1 nM.

On to `CC(C)c1noc(N2CCC([C@@H]3C[C@H]3CCOc3ccc(S(C)(=O)=O)c(F)c3)CC2)n1` [Example 65, 5-(4-((1S,2S)-2-(2-(3-fluoro-4-(methylsulfonyl)phenoxy)ethyl)cyclopropyl)piperidin-1-yl)-3-isopropyl-1,2,4-oxadiazole], for which the response was half-maximal at 7.7 nM (EC50).

Compound `CCS(=O)(=O)c1ccc(COC[C@H]2C[C@@H]2C2CCN(c3ncc(COC)cn3)CC2)cc1` [Example 13, 2-(4-((1R,2S)-2-(((4-(ethylsulfonyl)benzyl)oxy)methyl)cyclopropyl)piperidin-1-yl)-5-(methoxymethyl)pyrimidine] returned an EC50 of 24 nM.

In the case of `CS(=O)(=O)c1ccc(COC[C@H]2C[C@@H]2C2CCN(c3ncc(Cl)cn3)CC2)c(F)c1` [Example 4], the EC50 stood at 1.6 nM. This EC50 lies about 15-fold lower than the previous one.

`CN(C)C(=O)Cc1c(F)cc(OCC[C@H]2C[C@@H]2C2CCN(C(=O)OC3(C)CC3)CC2)cc1F` [Example 104, 1-methylcyclopropyl 4-((1R,2R)-2-(2-(4-(2-(dimethylamino)-2-oxoethyl)-3,5-difluorophenoxy)ethyl)cyclopropyl)piperidine-1-carboxylate] returned an EC50 of 0.69 nM.
